In patent US10172823B1, “Method for inhibiting cancer cell growth with a transplatin complex” (KING FAHD UNIVERSITY OF PETROLEUM AND MINERALS, priority 2017, dated 2019):
“Also recorded” adds a separate entry of the source.

Experiments:
[1] = system: A549 (human lung cancer) cell line; experiment: In vitro cytotoxic activity, MTT assay, A549 cell line; details: for in vitro cytotoxicity compared with cisplatin and carboplatin, A549: A549 cell line, comparison of IC50 values in words; for IC50: read-out: IC50 Values against A549, MTT assay, A549 cells, 24 h incubation with compound, three independent experiments, ± standard deviation
Procedure: (§1) The trans-[Pt(NH3)2(thione)2].2NO3 complexes were evaluated for in vitro cytotoxic activity against A549 (human lung cancer), MCF-7 (human breast cancer) and HTC15 (human colon cancer) cell lines. The cells were seeded at 4×10^3 cells/well in 100 μL DMEM containing 10% FBS in 96-wells tissue culture plate and incubated for 72 h at 37° C., 5% CO2 in air and 90% relative humidity in CO2 incubator. After incubation, 100 μL of each sample solution (50, 25, 12.5 and 6.25 μM), prepared in DMEM, were added to cells and the cultures were incubated for 24 h. The medium of wells was discarded and 100 μL DMEM containing MTT (3-(4,5-Dimethylthiazol-2-yl)-2,5-diphenyltetrazolium Bromide) (5 mg/mL) was added to the wells and incubated in CO2 incubator at 37° C. in dark for 4 h. After incubation, purple colored formazan (artificial chromogenic dye, product of the reduction of water insoluble tetrazolium salts e.g., MMT by dehydrogenases and reductases) in the cells is produced and appeared as dark crystals in the bottom of the wells. The resultant crystals were solublized by adding 100 μL of DMSO in each well. The solution was thoroughly mixed to dissolve the formazan crystals, producing a purple solution. The absorbance of the 96-wells plate was taken at 570 nm with Labsystems Multiskan EX-Enzyme-linked immunosorbent assay (EX-ELISA) reader against a reagent blank. The IC50 values were calculated from three independent experiments by generating an equation of logarithmic trend line of percentage cell viability against concentration of compounds in Microsoft excel.
(§2) The MTT assay was performed in three independent experiments, each in triplicate. The cancer cell lines used are A549 (human lung cancer), MCF-7 (human breast cancer) and HTC15 (human colon cancer) cell lines. Errors are standard deviations determined from at least three independent experiments.

[2] = system: MCF-7 (human breast cancer) cell line; experiment: In vitro cytotoxic activity, MTT assay, MCF-7 cell line; details: for cytotoxicity compared with cisplatin and carboplatin, MCF7: MCF7 cell line, comparison of IC50 values in words; for IC50: read-out: IC50 Values against MCF7, MTT assay, MCF7 cells, 24 h incubation with compound, three independent experiments, ± standard deviation
Procedure: as §1, with “After incubation, 100 μL of each sample solution (50, 25, 12.5 and 6.25 μM), prepared in DMEM, were added to cells and the cultures were incubated for 24 h.” left out
as §2

[3] = system: HCT15 (human colon cancer) cell line; experiment: In vitro cytotoxic activity, MTT assay, HCT15 cell line; assay type: cell-based; details: for activity compared with cisplatin and carboplatin, HCT15: HCT15 cell line, comparison of IC50 values in words; for IC50: MTT assay, HCT15 cells, 24 h incubation with compound, three independent experiments, ± standard deviation, read-out: IC50 Values against HCT15
Procedure: as §1, §2

**Q.** Which results are given for `CCN1CCCNC1=S.CCN1CCCNC1=S.N.N.O=[N+]([O-])[O-].O=[N+]([O-])[O-].[Pt+2]` [Complex 8, trans-[Pt(NH3)2(EtDiaz)2]. 2NO3]?
**A.** in vitro cytotoxicity compared with cisplatin and carboplatin, A549 [1]: slightly lower than cisplatin but still higher than carboplatin; IC50 [1]: 48 ± 1 µM; cytotoxicity compared with cisplatin and carboplatin, MCF7 [2]: between cisplatin and carboplatin; IC50 [2]: 60 ± 2 µM; activity compared with cisplatin and carboplatin, HCT15 [3]: comparable to cisplatin; IC50 [3]: 43 µM

**Q.** What does the source list for `CC(C)N1CCN(C(C)C)C1=S.CC(C)N1CCN(C(C)C)C1=S.N.N.O=[N+]([O-])[O-].O=[N+]([O-])[O-].[Pt+2]` [Complex 7, trans-[Pt(NH3)2(Pr2Imt)2].2 NO3]?
**A.** in vitro cytotoxicity compared with cisplatin and carboplatin, A549 [1]: the same cytotoxicity as carboplatin; IC50 [1]: 69 ± 1 µM; IC50 [2]: 87 ± 2 µM; activity compared with cisplatin and carboplatin, HCT15 [3]: almost the same cytotoxicity as carboplatin; IC50 [3]: 53 ± 1 µM

**Q.** With `CCN1CCN(CC)C1=S.CCN1CCN(CC)C1=S.N.N.O=[N+]([O-])[O-].O=[N+]([O-])[O-].[Pt+2]` [Complex 4, trans-[Pt(NH3)2(Et2Imt)2]. 2NO3] as the compound, how does the IC50 [1] read?
**A.** 75 ± 1 µM

**Q.** And the IC50 [2]?
**A.** 89 ± 1 µM

**Q.** And the “activity compared with cisplatin and carboplatin, HCT15” value [3]?
**A.** less potent even than carboplatin

**Q.** What about the IC50 [3] of the same compound?
**A.** 63 ± 1 µM

**Q.** How did the “in vitro cytotoxicity compared with cisplatin and carboplatin, A549” value [1] turn out when `N.N.O=[N+]([O-])[O-].O=[N+]([O-])[O-].S=C1NCCN1.S=C1NCCN1.[Pt+2]` [Complex 1, trans-[Pt(NH3)2(Imt)2]. 2NO3] was run?
**A.** slightly lower than cisplatin but still higher than carboplatin

**Q.** What about the IC50 [1] of the same compound?
**A.** 52 ± 2 µM

**Q.** What about the IC50 [2] of the same compound?
**A.** 80 ± 1 µM

**Q.** What about the “activity compared with cisplatin and carboplatin, HCT15” value [3] of the same compound?
**A.** almost the same cytotoxicity as carboplatin

**Q.** What about the IC50 [3] of the same compound?
**A.** 50 ± 1 µM

**Q.** With `N.N.O=[N+]([O-])[O-].O=[N+]([O-])[O-].S=C1NCCCCN1.S=C1NCCCCN1.[Pt+2]` [Complex 9, trans-[Pt(NH3)2(Diap)2]. 2NO3] as the compound, how does the “in vitro cytotoxicity compared with cisplatin and carboplatin, A549” value [1] read?
**A.** slightly lower than cisplatin but still higher than carboplatin

**Q.** What about the IC50 [1] of the same compound?
**A.** 49 ± 1 µM

**Q.** And the IC50 [2]?
**A.** 69 ± 1 µM

**Q.** And the “activity compared with cisplatin and carboplatin, HCT15” value [3]?
**A.** comparable to cisplatin

**Q.** What about the IC50 [3] of the same compound?
**A.** 41 µM

**Q.** Which results are given for `CN1CCN(C)C1=S.CN1CCN(C)C1=S.N.N.O=[N+]([O-])[O-].O=[N+]([O-])[O-].[Pt+2]` [Complex 3, trans-[Pt(NH3)2(Me2Imt)2]. 2NO3]?
**A.** in vitro cytotoxicity compared with cisplatin and carboplatin, A549 [1]: the same cytotoxicity as carboplatin; IC50 [1]: 70 ± 1 µM; IC50 [2]: 92 ± 2 µM; activity compared with cisplatin and carboplatin, HCT15 [3]: less potent even than carboplatin; IC50 [3]: 69 ± 2 µM

**Q.** Which results are given for `N.N.O=C([O-])C1(C(=O)[O-])CCC1.[Pt+2]` [Carboplatin, carboplatin, reference compound]?
**A.** IC50 [1]: 70 ± 2 µM; IC50 [2]: 63 ± 2 µM; IC50 [3]: 53 ± 2 µM

**Q.** `CN1CCNC1=S.CN1CCNC1=S.N.N.O=[N+]([O-])[O-].O=[N+]([O-])[O-].[Pt+2]` [Complex 2, trans-[Pt(NH3)2(MeImt)2]. 2NO3] was tested. Which “in vitro cytotoxicity compared with cisplatin and carboplatin, A549” value [1] did it give?
**A.** almost two-fold better than that of carboplatin; also recorded: better cytotoxicity against A549 cancer cell line than cisplatin

**Q.** And the IC50 [1]?
**A.** 40 µM

**Q.** What about the IC50 [2] of the same compound?
**A.** 70 ± 2 µM

**Q.** What about the “activity compared with cisplatin and carboplatin, HCT15” value [3] of the same compound?
**A.** comparable to cisplatin

**Q.** What about the IC50 [3] of the same compound?
**A.** 40 µM

**Q.** For `CCCN1CCNC1=S.CCCN1CCNC1=S.N.N.O=[N+]([O-])[O-].O=[N+]([O-])[O-].[Pt+2]` [Complex 5, trans-[Pt(NH3)2(PrImt)2]. 2NO3], which “in vitro cytotoxicity compared with cisplatin and carboplatin, A549” value [1] is on record?
**A.** almost two-fold better than that of carboplatin; also recorded: better cytotoxicity against A549 cancer cell line than cisplatin

**Q.** What about the IC50 [1] of the same compound?
**A.** 41 µM

**Q.** What about the “cytotoxicity compared with cisplatin and carboplatin, MCF7” value [2] of the same compound?
**A.** between cisplatin and carboplatin

**Q.** And the IC50 [2]?
**A.** 45 ± 1 µM

**Q.** What about the “activity compared with cisplatin and carboplatin, HCT15” value [3] of the same compound?
**A.** comparable to cisplatin

**Q.** What about the IC50 [3] of the same compound?
**A.** 36 µM

**Q.** For `N.N.[Cl][Pt][Cl]` [Cisplatin, cisplatin, reference compound], which IC50 [1] is on record?
**A.** 42 ± 2 µM

**Q.** What about the IC50 [2] of the same compound?
**A.** 23 ± 3 µM

**Q.** What about the IC50 [3] of the same compound?
**A.** 32 ± 2 µM

**Q.** What does the source list for `CC(C)N1CCNC1=S.CC(C)N1CCNC1=S.N.N.O=[N+]([O-])[O-].O=[N+]([O-])[O-].[Pt+2]` [Complex 6, trans-[Pt(NH3)2(iPrImt)2]. 2NO3]?
**A.** in vitro cytotoxicity compared with cisplatin and carboplatin, A549 [1]: slightly lower than cisplatin but still higher than carboplatin; IC50 [1]: 66 ± 1 µM; IC50 [2]: 86 ± 2 µM; activity compared with cisplatin and carboplatin, HCT15 [3]: less potent even than carboplatin; IC50 [3]: 79 ± 1 µM
